According to patent US20030153548A1, “Histamine-3 receptor ligands for diabetic conditions” (priority 2002, published 2003):

Tests used:
[1] = tested on: C57BL-6J mice fed a high-fat diet; assay: Insulin tolerance test in mice fed a high-fat diet; format: in vivo; conditions: FIG. 1
Procedure: Assessment of the ability of H3 receptor antagonists to ameliorate symptoms of diabetes has been determined in several ways. In the first instance, effects of an H3 antagonist on the insulin tolerance test in mice fed a high-fat diet were determined. C57BL-6J mice (aged 5-6 weeks) were obtained from Jackson Labs (Bar Harbor, Me., U.S.A.) and individually housed at Abbott facilities under conditions of 12 h lights on, 12 h lights off (on at 22:00), with food and water available ad libitum. […] Nine days prior to drug treatment, postprandial blood glucose was determined via a Medisense-G glucometer (Abbott Laboratories, Medisense Division, Bedford, Mass., U.S.A.). […] On day 21, animals were fasted for 3 hours and fasting blood glucose determined in a blood sample obtained by tail snip. Insulin tolerance was determined by administering insulin (Lilly Humulin-R, 0.25 U/kg, i.p., obtained from Eli Lilly and Company, Indianapolis, Ind., U.S.A.) with blood glucose measured at 30, 60, 90 and 120 minutes using the glucometer. […] The 4′-{3-[(3R)-3-(dimethylamino)pyrrolidinyl]propoxy} [1,1′-biphenyl]-4-carbonitrile compound was administered p.o. at doses of 0.5, 5, and 15 mg/kg b.i.d., and dexfenfluramine at a dose of 10 mg/kg p.o., b.i.d. Data were analyzed using GraphPad InStat® (San Diego, Calif., U.S.A.) software using a one-way ANOVA software followed by Dunnett's post hoc test.

[2] = tested on: C57BL-6J mice fed a high-fat diet; assay: Serum triglyceride levels in mice fed a high-fat diet; format: in vivo; conditions: FIG. 2

CN(C)[C@@H]1CCN(CCCOc2ccc(-c3ccc(C#N)cc3)cc2)C1 [Compound A, 4′-{3-[(3R)-3-(dimethylamino)pyrrolidinyl]propoxy}[1,1′-biphenyl]-4-carbonitrile]
insulin tolerance test (blood glucose after insulin) ([1]; 15 mg/kg p.o. twice daily): completely normalized
insulin tolerance test (blood glucose after insulin) ([1]; 0.5, 5 and 15 mg/kg p.o. b.i.d., day 21, insulin 0.25 U/kg i.p.): dose-dependent improvement

CN(C)C1CCN(CCCOc2c(F)cc(-c3ccc(C#N)cc3)cc2F)C1 (centres unmarked) [Compound B]
triglyceride levels ([2]; 10 mg/kg p.o. b.i.d., after 13 days): reduced to the same level as those seen in low-fat diet fed mice
triglyceride levels ([2]; 1, 3 and 10 mg/kg p.o. b.i.d., postprandial blood after 13 days): clear, dose-dependent decrease

CC(C)CC(N(C)C)C1(c2ccc(Cl)cc2)CCC1 (centres unmarked) [sibutramine, reference compound]
triglyceride levels (effects as of Compound B) ([2]; 5 mg/kg p.o. b.i.d., after 13 days): not seen
